# Experiments:
# [1] = tested on: human recombinant α1β1γ1 AMPK γ1 mutants (R70G, R152G); experiment: In vitro kinase assay with mutant AMPK pulled down from HEK-293T cells; assay type: biochemical; details: 30 nM Activator-3; γ1 R70G, R152G mutants
# Description: (§1) A high binding Enzyme Immuno Assay (EIA) 96-well plate (Sigma: Cat# CLS3590) was coated with Acetyl CoA Carboxylase 2 (ACC: 175–271 amino acids) peptide, a direct substrate for AMPK, 100 ng per well (1:1000 ratio, Cat# 12–491, Upstate biotechnology) and incubated overnight at 25 °C. Reaction mixture was incubated at 30 °C for 2 h and reaction was stopped by washing the plate with 0.05% Tween 20 followed by incubation with pACC primary antibody and rabbit secondary antibody as described in cell based ELISA section. Assay buffer is composed of 10 mM DTT, 100 mM magnesium acetate, 50 μM ATP and 10 mM HEPES.
# R70 and R152 residues in AMPK γ1 subunit (pDONR223-PRKAG1: purchased from addgene, cat# plasmid#23718) are mutated to glycine using overlapping extension PCR. Subsequently, the mutants were transferred into a triple tagged destination vector (Streptavidin, Flag and Biotin; SFB-pDEST) by using gateway cloning technology. The mutant DNA was transfected into HEK-293T cells using PEI following standard procedures. After 4 h of transfection, media was changed to DMEM containing 10% FBS. Cells were lysed in TENNS lysis buffer (20 mM Tris pH:8.0, 100 mM NaCl, 1 mM EDTA, 10 mM Na2H2P2O7, 10 mM NaF, 10 mM Na3VO4, 0.5% NP40) and subjected to pull down using streptavidin beads followed by biotin elution. To protect the protein from dephosphorylation, cells were treated with 500 μM AICAR prior to lysis. This purified protein was estimated by using nanodrop and taken for in vitro kinase assay to check whether Activator-3 is binding to the mutant AMPK or not, and the activity of the mutant protein was assessed by comparing with the wild type protein activity.
# [2] = target: T1, recombinant human AMPK α2β2γ3 (Homo sapiens, UniProt Q9UGI9); experiment: In vitro AMP kinase assay (pACC ELISA), α2β2γ3; assay type: biochemical
# T1 construct: purchased SignalChem; host or cells: baculovirus expression
# Description: (§2) Having observed the effect of Activator-3 on the activation of AMPK in cell based assays, we next examined whether Activator-3 could activate AMPK directly or not. […] The activity of recombinant human AMPK (α1β1γ1, α2β1γ1, α2β2γ2 and α2β2γ3) in the presence of vehicle was considered as 100%. The EC50 of Activator-3 for the activation of α1β1γ1, α2β1γ1 and α2β2γ2 isozymes were similar. However, the activity of Activator-3 against α2β2γ3 was marginally higher (Fig. 1C).
# as §1
# HSD fed diabetic rats = experiment: HSD fed insulin resistant diabetic rats; assay type: in vivo, rat
# Description: Approximately 100 mg of soleus muscle tissue was taken and lysed with RIPA lysis buffer. Lysates were resolved on 12% SDS–polyacrylamide gels and were transferred to PVDF membrane (Millipore, USA). Membrane was blocked with 5% nonfat milk in TRIS buffered saline (TBS; 10 mM TRIS (pH 8.0), 150 mM NaCl) for 1 hour and probed with primary antibody of interest: phospho-AMPK (Thr^172) (1:1000; Cell Signaling Technology, USA), phospho-ACC (Ser^79) (1:1000; Cell Signaling Technology, USA), total AMPK (1:1000; Cell Signaling Technology, USA), total ACC (1:1000; Cell Signaling Technology, USA), and total Actin (1:1000; Santa Cruz Biotechnology, USA). Subsequently, membranes were incubated with corresponding HRP-conjugated secondary antibodies. The chemiluminescence signals were captured on photographic films using an enhanced chemiluminescence (Thermo Scientific, USA).The loading controls of phospho-ACC and phospho-AMPK in Fig. 6J were probed in parallel gels.
# Twelve weeks old healthy colony bred male Wistar rats, weighing about 150–200 grams were purchased from the animal research facility (Cadila Pharma limited, Ahmedabad, India) and maintained at the animal house of Institute of pharmacy (Nirma University, India). All the methods were carried out in accordance with the approved guidelines. Experimental protocol involving animals was reviewed and approved by the Animal Ethical Committee of Institute of Science, Nirma University, Ahmedabad, India (Protocol No. IS/FAC/14-1/021) Animals were maintained in polypropylene cages in a standard photoperiod (12 h light:12 h dark cycle) and temperature (27 ± 1 °C) controlled room with the provision of laboratory food (Gold Mohur feeds Ltd, New Delhi, India) and water ad libitum. Animals were segregated into three different experimental groups with 6 animals in each as follows: non-diabetic group with standard chow diet (control group, CD), Diabetic group with high sucrose diet (65%, treated group, HSD)[84] and HSD with AMPK Activator-3 treated group (10 mg/kg body weight of animal). Post HSD induction animals were treated with AMPK Activator-3 for 30 days.
# Animals were subjected to an OGTT at a beginning of the treatment (0 day) and a day before the end of the experiment (30 day). OGTT was performed after 12 h of the fasting. Briefly, after fasting, animals were given a glucose load (2 g/kg) orally. Blood samples were collected from the animal tail vein at 0 min (before glucose administration) and at 15, 30, 60, 90 and 120 min after glucose administration. Glucose concentration was determined using a CareSensN blood glucose monitor and glucose strips. Area under the curve for glucose (AUCglucose) was calculated using the trapezoidal rule.
# Approximately, 1 ml of the blood samples was collected from the retro-orbital plexus of the animals under the mild anesthesia using diethyl ether. Blood was then transferred to the microfuge tubes for separation of plasma and serum at 0 day (start of the treatment) and the last day of the experiment (30 day). Total cholesterol and triglycerides levels were estimated from plasma using a diagnostic kit from Accucare India Ltd according to the protocol mentioned by the manufacturer.
# Plasma FFA was estimated using chloroform and triethyalanomine extraction method by measuring the absorbance at 440 nm. The stearic acid was used as standard fatty acid and detailed protocol was performed as mentioned[85],[86]. […]
# [3] = target: human recombinant AMPK α2β1γ1 (Homo sapiens, UniProt P54619); experiment: In vitro AMP kinase assay (pACC ELISA), α2β1γ1; assay type: biochemical; design: purchased SignalChem P47-10H-05/P48-10H-05 (for all four isozymes together); host or cells: baculovirus expression
# Description: as §2, §1
# [4] = Human plasma protein binding; assay type: in vitro ADME; details: data not shown
# [5] = tested on: human recombinant AMPK isozymes; experiment: In vitro AMP kinase assays, isozymes taken together; assay type: biochemical
# Description: as §1
# [6] = 10 mg/kg oral once a day, 30th day
# T1 sequence (Q9UGI9 whole entry): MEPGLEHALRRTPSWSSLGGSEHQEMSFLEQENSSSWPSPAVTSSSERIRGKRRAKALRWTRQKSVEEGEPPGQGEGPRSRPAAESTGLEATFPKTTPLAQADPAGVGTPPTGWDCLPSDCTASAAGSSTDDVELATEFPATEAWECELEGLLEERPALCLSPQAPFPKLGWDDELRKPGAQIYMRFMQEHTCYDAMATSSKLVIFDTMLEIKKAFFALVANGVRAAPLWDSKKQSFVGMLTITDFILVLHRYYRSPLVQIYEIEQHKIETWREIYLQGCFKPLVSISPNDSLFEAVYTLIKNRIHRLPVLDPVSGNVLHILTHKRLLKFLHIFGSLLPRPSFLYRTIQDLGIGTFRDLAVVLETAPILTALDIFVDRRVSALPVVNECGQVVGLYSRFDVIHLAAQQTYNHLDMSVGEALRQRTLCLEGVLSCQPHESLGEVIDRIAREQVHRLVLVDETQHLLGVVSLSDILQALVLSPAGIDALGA
# T1 sequence (P54646 whole entry partner): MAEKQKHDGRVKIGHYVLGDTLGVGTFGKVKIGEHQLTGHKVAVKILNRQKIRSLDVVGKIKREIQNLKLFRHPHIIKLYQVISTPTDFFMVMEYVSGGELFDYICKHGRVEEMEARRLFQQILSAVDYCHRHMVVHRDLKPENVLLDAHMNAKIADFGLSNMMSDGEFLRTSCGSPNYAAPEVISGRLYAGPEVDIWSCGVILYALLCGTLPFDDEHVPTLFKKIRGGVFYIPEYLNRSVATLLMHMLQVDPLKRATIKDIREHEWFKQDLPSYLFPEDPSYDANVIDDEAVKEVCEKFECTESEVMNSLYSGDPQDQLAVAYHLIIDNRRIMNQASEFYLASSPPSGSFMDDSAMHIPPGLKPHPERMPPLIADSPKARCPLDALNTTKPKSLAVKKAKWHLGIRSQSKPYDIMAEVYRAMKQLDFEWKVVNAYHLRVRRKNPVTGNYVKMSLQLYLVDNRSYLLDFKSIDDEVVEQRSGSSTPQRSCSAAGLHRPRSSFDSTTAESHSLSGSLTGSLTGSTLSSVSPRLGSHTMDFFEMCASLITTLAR
# T1 sequence (O43741 whole entry partner): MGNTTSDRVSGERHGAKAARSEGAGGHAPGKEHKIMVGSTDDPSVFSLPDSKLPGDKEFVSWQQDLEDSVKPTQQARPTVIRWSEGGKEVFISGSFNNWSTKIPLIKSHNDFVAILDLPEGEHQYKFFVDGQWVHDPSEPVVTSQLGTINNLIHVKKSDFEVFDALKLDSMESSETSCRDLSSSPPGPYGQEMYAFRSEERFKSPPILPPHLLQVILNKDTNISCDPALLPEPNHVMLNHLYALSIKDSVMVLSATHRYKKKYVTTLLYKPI
# Sequence of human recombinant AMPK α2β1γ1 (P54619 whole entry): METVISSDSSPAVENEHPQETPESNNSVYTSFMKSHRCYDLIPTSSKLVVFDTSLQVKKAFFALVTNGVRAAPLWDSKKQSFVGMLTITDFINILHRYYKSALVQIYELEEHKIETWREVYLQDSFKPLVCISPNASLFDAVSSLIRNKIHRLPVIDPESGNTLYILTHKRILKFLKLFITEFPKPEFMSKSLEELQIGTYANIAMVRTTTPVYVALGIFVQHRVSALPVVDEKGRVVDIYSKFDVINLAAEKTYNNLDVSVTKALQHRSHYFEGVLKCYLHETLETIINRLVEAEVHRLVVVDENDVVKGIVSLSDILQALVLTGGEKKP
# Sequence of human recombinant AMPK α2β1γ1 (P54646 whole entry partner): as the sequence (P54646 whole entry partner) above
# Sequence of human recombinant AMPK α2β1γ1 (Q9Y478 whole entry partner): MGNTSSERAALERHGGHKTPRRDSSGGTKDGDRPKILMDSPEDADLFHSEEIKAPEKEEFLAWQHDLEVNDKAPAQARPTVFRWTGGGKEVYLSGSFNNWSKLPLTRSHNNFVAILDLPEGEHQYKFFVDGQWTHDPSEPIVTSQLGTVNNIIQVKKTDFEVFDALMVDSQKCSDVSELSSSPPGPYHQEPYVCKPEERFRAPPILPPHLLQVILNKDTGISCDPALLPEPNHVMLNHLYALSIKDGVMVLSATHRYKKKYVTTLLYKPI
smiles,measurement,setting,value
"O=C(O)Cc1csc(Nc2ccc(C(F)(F)F)cc2)n1 [Activator-3, 2-[2-(4-(trifluoromethyl)phenylamino)thiazol-4-yl]acetic acid]",AMPK activity of mutant proteins vs wild type,[1],significant reduction
same,increase of AMPK activity over 100 µM AMP alone,[2]; co-treatment Activator-3 and 100 µM AMP,> 30%
same,EC50,[2]; read-out: EC50 allosteric activation hα2β2γ3,~4 nM
same,glucose concentration in OGTT vs HSD group,HSD fed diabetic rats; [6],significantly reduced
same,plasma free fatty acid vs HSD group,HSD fed diabetic rats; [6],significantly lower
same,plasma total cholesterol vs HSD group,HSD fed diabetic rats; [6],significantly lower
same,HSD induced body weight gain,"HSD fed diabetic rats; 10 mg/kg oral once a day, 30 days, p < 0.05",decreased
same,phosphorylation of AMPK and ACC in soleus muscle,"HSD fed diabetic rats; 10 mg/kg/day for 30 days, western blot",restored
same,reduction of AMPK activity stimulated by 100 µM AMP,[3]; Activator-3 1 nM to 10 μM with 100 µM AMP,~ 50%
same,EC50,[3]; read-out: EC50 allosteric activation hα2β1γ1,~23 nM
same,fraction unbound,[4],~0.2
same,activation of AMPK,[5],30–40%
